Laboratory results published in US11254700B2, “GSK-3β inhibitors and use thereof in methods of treatment” (UNIVERSITY OF HAWAII, priority 2017, dated 2022).

Biological target: GSK-3β (Homo sapiens, UniProt P49841)
Assay: Kinase luminescent assay (ADP-Glo), GSK-3β inhibition
Format: biochemical
Conditions: 25 μM ATP, 1 hour, room temperature; mean of quadruplicate of two experiments; read-out: IC50 against GSK-3β
Method: Kinase Luminescent Assay.
Kinase inhibition was assessed with the ADP-Glo Kinase Assay. […] The reaction mixture was incubated for 1 hour at room temperature followed by the addition of the ADP-Glo′ reagents according to the manufacturer's protocol. The kinase inhibitor staurosporine was used at 1 μM as a reference control. Each data point was collected in quadruplicate of two independent experiments.

GSK-3β, sequence (P49841 whole entry): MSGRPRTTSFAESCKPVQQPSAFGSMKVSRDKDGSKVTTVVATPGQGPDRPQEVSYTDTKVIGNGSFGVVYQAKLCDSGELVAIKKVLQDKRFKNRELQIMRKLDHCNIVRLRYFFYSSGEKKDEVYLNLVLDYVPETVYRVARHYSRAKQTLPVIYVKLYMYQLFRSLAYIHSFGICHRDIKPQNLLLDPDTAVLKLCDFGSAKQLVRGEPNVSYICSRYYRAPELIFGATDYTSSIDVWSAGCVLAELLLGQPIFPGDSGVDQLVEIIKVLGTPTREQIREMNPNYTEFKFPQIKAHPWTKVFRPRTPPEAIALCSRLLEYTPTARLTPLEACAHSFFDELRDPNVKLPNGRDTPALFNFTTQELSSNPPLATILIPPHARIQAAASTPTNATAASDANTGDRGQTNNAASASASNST

IC50 | SMILES
239.2 ± 1.2 µM | COc1ccc(-c2cc(=O)c3c(OC)c([C@@H]4O[C@H](CO)[C@@H](O)[C@H](O)[C@H]4O)c(OC)cc3o2)cc1OC [Compound 5, 2-(3,4-Dimethoxyphenyl)-5,7-dimethoxy-6-((2S,3R,4R,5S,6R)-3,4,5-trihydroxy-6-(hydroxymethyl)tetrahydro-2H-pyran-2-yl)-4H-chromen-4-one]
237.3 ± 1.4 µM | COc1ccc(-c2cc(=O)c3c(OC)c([C@@H]4O[C@H](C(=O)O)[C@@H](O)[C@H](O)[C@H]4O)c(OC)cc3o2)cc1OC [Compound 6, (2S,3S,4R,5R,6S)-6-(2-(3,4-Dimethoxyphenyl)-5,7-dimethoxy-4-oxo-4H-chromen-6-yl)-3,4,5-trihydroxytetrahydro-2H-pyran-2-carboxylic acid]
135 µM | COC(=O)[C@H]1O[C@@H](c2c(OC)cc3oc(-c4ccc(OC)c(OC)c4)cc(=O)c3c2OC)[C@H](O)[C@@H](O)[C@@H]1O [Compound 7, Methyl (2S,3S,4R,5R,6S)-6-(2-(3,4-dimethoxyphenyl)-5,7-dimethoxy-4-oxo-4H-chromen-6-yl)-3,4,5-trihydroxytetrahydro-2H-pyran-2-carboxylate]
29.2 ± 1.1 µM | CCCNC(=O)[C@H]1O[C@@H](c2c(OC)cc3oc(-c4ccc(OC)c(OC)c4)cc(=O)c3c2OC)[C@H](O)[C@@H](O)[C@@H]1O [Compound 8, (2S,3S,4R,5R,6S)-6-(2-(3,4-Dimethoxyphenyl)-5,7-dimethoxy-4-oxo-4H-chromen-6-yl)-3,4,5-trihydroxy-N-propyltetrahydro-2H-pyran-2-carboxamide]
33.3 ± 1.1 µM | CCCCNC(=O)[C@H]1O[C@@H](c2c(OC)cc3oc(-c4ccc(OC)c(OC)c4)cc(=O)c3c2OC)[C@H](O)[C@@H](O)[C@@H]1O [Compound 10, (2S,3S,4R,5R,6S)-6-(2-(3,4-Dimethoxyphenyl)-5,7-dimethoxy-4-oxo-4H-chromen-6-yl)-3,4,5-trihydroxy-N-butyltetrahydro-2H-pyran-2-carboxamide]
31.1 ± 1.2 µM | COc1ccc(-c2cc(=O)c3c(OC)c([C@@H]4O[C@H](C(=O)NCC(C)C)[C@@H](O)[C@H](O)[C@H]4O)c(OC)cc3o2)cc1OC [Compound 11, (2S,3S,4R,5R,6S)-6-(2-(3,4-Dimethoxyphenyl)-5,7-dimethoxy-4-oxo-4H-chromen-6-yl)-3,4,5-trihydroxy-N-isobutyltetrahydro-2H-pyran-2-carboxamide]
28 ± 1.1 µM | CCCCCNC(=O)[C@H]1O[C@@H](c2c(OC)cc3oc(-c4ccc(OC)c(OC)c4)cc(=O)c3c2OC)[C@H](O)[C@@H](O)[C@@H]1O [Compound 12, (2S,3S,4R,5R,6S)-6-(2-(3,4-Dimethoxyphenyl)-5,7-dimethoxy-4-oxo-4H-chromen-6-yl)-3,4,5-trihydroxy-N-pentyltetrahydro-2H-pyran-2-carboxamide]
9.4 ± 0.9 µM | CCCCCCNC(=O)[C@H]1O[C@@H](c2c(OC)cc3oc(-c4ccc(OC)c(OC)c4)cc(=O)c3c2OC)[C@H](O)[C@@H](O)[C@@H]1O [Compound 13, (2S,3S,4R,5R,6S)-6-(2-(3,4-Dimethoxyphenyl)-5,7-dimethoxy-4-oxo-4H-chromen-6-yl)-3,4,5-trihydroxy-N-hexyltetrahydro-2H-pyran-2-carboxamide]
25.8 ± 1.1 µM | COc1ccc(-c2cc(=O)c3c(OC)c([C@@H]4O[C@H](C(=O)NC5CC5)[C@@H](O)[C@H](O)[C@H]4O)c(OC)cc3o2)cc1OC [Compound 14, (2S,3S,4R,5R,6S)—N-Cyclopropyl-6-(2-(3,4-dimethoxyphenyl)-5,7-dimethoxy-4-oxo-4H-chromen-6-yl)-3,4,5-trihydroxytetrahydro-2H-pyran-2-carboxamide]
61.9 ± 1.9 µM | COc1ccc(-c2cc(=O)c3c(OC)c([C@@H]4O[C@H](C(=O)NC5CCC5)[C@@H](O)[C@H](O)[C@H]4O)c(OC)cc3o2)cc1OC [Compound 15, (2S,3S,4R,5R,6S)—N-Cyclobutyl-6-(2-(3,4-dimethoxyphenyl)-5,7-dimethoxy-4-oxo-4H-chromen-6-yl)-3,4,5-trihydroxytetrahydro-2H-pyran-2-carboxamide]
26 ± 1.2 µM | COc1ccc(-c2cc(=O)c3c(OC)c([C@@H]4O[C@H](C(=O)NCC5CCCCC5)[C@@H](O)[C@H](O)[C@H]4O)c(OC)cc3o2)cc1OC [Compound 18, (2S,3S,4R,5R,6S)—N-(Cyclohexylmethyl)-6-(2-(3,4-dimethoxyphenyl)-5,7-dimethoxy-4-oxo-4H-chromen-6-yl)-3,4,5-trihydroxytetrahydro-2H-pyran-2-carboxamide]
33.5 ± 0.8 µM | COc1ccc(-c2cc(=O)c3c(OC)c([C@@H]4O[C@H](C(=O)NC56CC7CC(CC(C7)C5)C6)[C@@H](O)[C@H](O)[C@H]4O)c(OC)cc3o2)cc1OC [Compound 19, (2S,3S,4R,5R,6S)—N-(Adamantan-1-yl)-6-(2-(3,4-dimethoxyphenyl)-5,7-dimethoxy-4-oxo-4H-chromen-6-yl)-3,4,5-trihydroxytetrahydro-2H-pyran-2-carboxamide]
19.7 ± 1.1 µM | COc1ccc(-c2cc(=O)c3c(OC)c([C@@H]4O[C@H](C(=O)Nc5ccccc5)[C@@H](O)[C@H](O)[C@H]4O)c(OC)cc3o2)cc1OC [Compound 20, (2S,3S,4R,5R,6S)-6-(2-(3,4-Dimethoxyphenyl)-5,7-dimethoxy-4-oxo-4H-chromen-6-yl)-3,4,5-trihydroxy-N-phenyltetrahydro-2H-pyran-2-carboxamide]
35.1 ± 1 µM | COc1ccc(-c2cc(=O)c3c(OC)c([C@@H]4O[C@H](C(=O)Nc5nccs5)[C@@H](O)[C@H](O)[C@H]4O)c(OC)cc3o2)cc1OC [Compound 23, (2S,3S,4R,5R,6S)-6-(2-(3,4-Dimethoxyphenyl)-5,7-dimethoxy-4-oxo-4H-chromen-6-yl)-3,4,5-trihydroxy-N-(thiazol-2-yl)tetrahydro-2H-pyran-2-carboxamide]
34.8 ± 1 µM | COc1ccc(-c2cc(=O)c3c(OC)c([C@@H]4O[C@H](C(=O)NCCF)[C@@H](O)[C@H](O)[C@H]4O)c(OC)cc3o2)cc1OC [Compound 26, (2S,3S,4R,5R,6S)-6-(2-(3,4-Dimethoxyphenyl)-5,7-dimethoxy-4-oxo-4H-chromen-6-yl)-3,4,5-trihydroxy-N-(2-fluoroethyl)tetrahydro-2H-pyran-2-carboxamide]
< 20 µM | COc1ccc(-c2cc(=O)c3c(OC)c([C@@H]4O[C@H](C(=O)N[C@H](C)C(F)(F)F)[C@@H](O)[C@H](O)[C@H]4O)c(OC)cc3o2)cc1OC [Compound 31, (2S,3S,4R,5R,6S)-6-(2-(3,4-Dimethoxyphenyl)-5,7-dimethoxy-4-oxo-4H-chromen-6-yl)-3,4,5-trihydroxy-N—((R)-1,1,1-trifluoropropan-2-yl) tetrahydro-2H-pyran-2-carboxamide]

SMILES | IC50
O=c1cc(-c2ccc(O)c(O)c2)oc2c([C@@H]3O[C@H](CO)[C@@H](O)[C@H](O)[C@H]3O)c(O)cc(O)c12 [Compound 3, orientin, reference compound] | 5153 ± 31 µM
O=c1cc(-c2ccc(O)c(O)c2)oc2cc(O)cc(O)c12 [Compound 4, luteolin, reference compound] | 3.1 µM
COc1ccc(-c2cc(=O)c3c(OC)c([C@@H]4O[C@H](C(=O)NC5CCCC5)[C@@H](O)[C@H](O)[C@H]4O)c(OC)cc3o2)cc1OC [Compound 16, (2S,3S,4R,5R,6S)—N-Cyclopentyl-6-(2-(3,4-dimethoxyphenyl)-5,7-dimethoxy-4-oxo-4H-chromen-6-yl)-3,4,5-trihydroxytetrahydro-2H-pyran-2-carboxamide] | 13.1 ± 1.1 µM

Same assay, conditions: vs isoorientin 1

increase of potency against GSK-3β relative to 1 | SMILES
1.37 fold | COC(=O)[C@H]1O[C@@H](c2c(OC)cc3oc(-c4ccc(OC)c(OC)c4)cc(=O)c3c2OC)[C@H](O)[C@@H](O)[C@@H]1O [Compound 7, Methyl (2S,3S,4R,5R,6S)-6-(2-(3,4-dimethoxyphenyl)-5,7-dimethoxy-4-oxo-4H-chromen-6-yl)-3,4,5-trihydroxytetrahydro-2H-pyran-2-carboxylate]

System: not listed separately
Assay: in vitro
Conditions: PAMPA, 5 h, 20 μM, pH 7.4
Method: Samples were run in quadruplicate.
Oral administration is noninvasive and is preferred for chronical diseases such as Alzheimer's disease and other CNS disorders. […] In the PAMPA model, the amount of target compounds diffused from a donor compartment to an acceptor compartment through a tri-layer phospholipid pre-coated membrane are measured to assess oral-absorption potential of drug candidates. In the present study, 1, 4, 9, 17, 21 and 30 were evaluated with the PAMPA assay.

SMILES | Pe | R (percent recovery)
O=c1cc(-c2ccc(O)c(O)c2)oc2cc(O)cc(O)c12 [Compound 4, luteolin, reference compound] | 1.42 ± 0.07 ×10^−6 cm/s | 43%
CNCCCN1c2ccccc2CCc2ccccc21 [Desipramine, reference compound] | 13.43 ± 0.91 ×10^−6 cm/s | 96%

Same assay, conditions: PAMPA, pH 7.4

SMILES | Papp at 5 h, 20 µM
O=c1cc(-c2ccc(O)c(O)c2)oc2cc(O)cc(O)c12 [Compound 4, luteolin, reference compound] | 1 to 1.5 ×10⁻⁶ cm/s
